The text below walks through data of US11230544B1, “Substituted 1,3,4-thiadiazoles as GLS1 inhibitors” (MEDSHINE DISCOVERY INC., priority 2018, dated 2022).

Counter-ions that a name gives are not always drawn.

The target of data set [1] is T1, GLS1 (Homo sapiens, UniProt O94925).
T1 sequence (O94925 73-669 limits assumed): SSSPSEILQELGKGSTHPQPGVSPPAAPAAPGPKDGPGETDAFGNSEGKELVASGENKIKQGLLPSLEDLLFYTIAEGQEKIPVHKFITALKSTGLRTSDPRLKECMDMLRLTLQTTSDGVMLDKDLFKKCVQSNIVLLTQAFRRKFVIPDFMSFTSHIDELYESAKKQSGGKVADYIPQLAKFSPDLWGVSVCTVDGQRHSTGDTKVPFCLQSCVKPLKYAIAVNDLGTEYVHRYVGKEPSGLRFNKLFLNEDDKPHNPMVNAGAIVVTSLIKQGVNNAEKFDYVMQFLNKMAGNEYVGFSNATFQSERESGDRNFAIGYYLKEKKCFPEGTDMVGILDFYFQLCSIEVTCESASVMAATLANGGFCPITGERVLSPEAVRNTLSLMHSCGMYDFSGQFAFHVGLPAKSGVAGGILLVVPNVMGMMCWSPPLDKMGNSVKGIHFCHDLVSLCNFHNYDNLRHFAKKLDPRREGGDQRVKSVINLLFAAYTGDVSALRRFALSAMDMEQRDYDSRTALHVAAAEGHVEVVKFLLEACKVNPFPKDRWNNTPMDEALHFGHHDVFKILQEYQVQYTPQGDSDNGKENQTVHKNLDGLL
The experiment in a line: Activity test of compounds in a GLS1 coupling reaction system. The class given is biochemical. To be noted: enzyme GLS1 2 nM, 4.5 mM L-glutamine, 1 hour preincubation at 23° C. On the procedure: Experimental Example 1: Activity Test of Compounds in a GLS1 Coupling Reaction System
The final concentration of each component in the final experimental buffer was 50 mM Tris-HCl pH 8.0, 0.25 mM EDTA, 150 mM K2HPO4, 0.1 mg/mL BSA, 1 mM DTT, and 0.01% o Triton X-100.
the 1× assay buffer was used to prepare “solution A” in the experiment (solution A contained L-glutamine, NAD+ and GLDH), and the final concentration of each component in the final experimental reaction system was 4.5 mM L-glutamine, 2 mM NAD+, and 4 U/mL GLDH; the 1× assay buffer was used to prepare “solution B” in the experiment—2× enzyme solution (solution B contained enzyme GLS1), and the final concentration of GLS1 in the final experimental reaction system was 2 nM.
The experiment plate was the plate prepared by Labcyte's ECHO that contained the gradient concentration of the compound and the corresponding DMSO solution before the experiment:
The experiment plate was taken out, and 20 μL of solution B (an enzyme GLS1 solution) was add to the 2nd to 23rd columns of the experiment plate, and then 20 μL of assay buffer was added to the 1st and 24th columns of the experiment plate, wherein the 1st and 24th columns were used as control groups of the experimental system; the plate was centrifuged at 1000 rpm for 30 seconds; the plate was sealed and incubated at 23° C. for 1 hour; I after 1 hour incubation, 20 μL of solution A was added to columns 1 to 24 of the experiment plate (i.e., addition of samples to the whole plate); the plate was centrifuged at 1000 […] for 30 seconds; the experiment plate was placed on SpectraMax 340PC, and read continuously for 20 minutes in the dynamic mode (the reading interval was set to 1 minute).

Data set [2] is described as follows: Pharmacokinetic evaluation of compounds in mice. The class given is in vivo. Conditions: mouse, plasma, female C57BL/6 mice; for bioavailability: oral, gavage vs intravenous; for half-life: tail intravenous injection and gavage, read-out: T1/2 (half-life) (converted); for half-life / AUC(0-inf) / Cmax: route not given; for Cmax: read-out: Cmax (peak concentration). On the procedure: Experimental Example 2: Pharmacokinetic Evaluation of Compounds
Objective: To test the in vivo pharmacokinetics of the compounds in mice
C57BL/6 mice (female, 7-9 weeks old, Shanghai SLAC)
Experiment operations: The clear solution obtained by dissolving the test compound was administered to female C57BL/6 mice (overnight fasting, 7-9 weeks old) via tail intravenous injection and gavage, respectively. After administration of the test compound or the control compound, blood was collected from the mandibular vein of the intravenous injection group at 0.0833, 0.25, 0.5, 1, 2, 4, 6, 8 and 24 hours, and of the gavage group at 0.0833, 0.25, 0.5, 1, 2, 4, 6, 8 and 24 hours, respectively, and centrifuged to obtain plasma. The LC-MS/MS method was used to determine the blood drug concentration, and the WinNonlin™ Version 6.3 pharmacokinetic software was used to calculate the relevant pharmacokinetic parameters by the non-compartmental model linear logarithmic trapezoidal method.

Data set [3] deals with human myeloma RPMI-8226 cell. The experiment in a line: In vivo pharmacodynamic study, CB-17 SCID nude mouse subcutaneous xenograft model of human myeloma RPMI-8226 cell. To be noted: for Tumor volume (mm^3) (Day 14): Mean ± SEM, PO, Poma 1 mg/kg QD, CB-839 or compound 2 100 mg/kg (D1-D10) 150 mg/kg (D11-D14) BID. On the set-up: species or system mouse xenograft of human cells. An excerpt:
Experimental Example 3 In Vivo Pharmacodynamic Study of a CB-17 SCID Nude Mouse Subcutaneous Xenograft Model of Human Myeloma RPMI-8226 Cell
Objective: Pomalidomide is used to treat multiple myeloma, and this experiment is used to study and evaluate the in vivo efficacy of the test compound combined with pomalidomide in the CB-17 SCID nude mouse subcutaneous xenograft model of human myeloma RPMI-8226 cell.
Experiment animals: female CB-17 SCID nude mice, 6 to 8 weeks old, with the body weigh of 18 to 22 grams; Supplier: Shanghai Lingchang Biological Technology Co., Ltd.
Human myeloma RPMI 8226 cells were cultured in a monolayer in vitro. The culture conditions were: RPMI 1640 medium (brand: gibco—22400089, batch: 1894220) supplemented with 10% fetal bovine serum, 100 U/mL penicillin and 100 μg/mL streptomycin, at 37° C. and 5% CO2. Conventional digestion treatment with pancreatin-EDTA for passage was carried out twice a week. When the cell confluence reached 80% to 90%, the cells were harvested, counted and inoculated.
0.2 mL (6×10^6 cells) of RPMI 8226 cells (supplemented with matrigel in a volume ratio of 1:1) were subcutaneously inoculated on the right back of each mouse. The grouping and administration were started when the average tumor volume reached 374 mm^3.
The test compound (compound 2) was formulated into a clear solution of 10 mg/mL, and the solvent was a 10 mM citric acid buffer containing 0.2% Tween-80 and 25% hydroxypropyl-β-cyclodextrin, pH=4. CB-839 was formulated into a clear solution of 10 mg/mL, and the solvent was a 10 mM citric acid buffer containing 25% hydroxypropyl-β-cyclodextrin, pH=2.2. Pomalidomide (Poma) was formulated into a clear solution of 0.1 mg/mL, and the solvent was 20% PEG400+80% (20% hydroxypropyl-β-cyclodextrin).
The experimental index was to investigate whether the tumor growth was inhibited, delayed or cured. Tumor diameter was measured twice a week with a vernier caliper. The calculation formula of tumor volume was V=0.5a×b^2, wherein a and b represented the long and short diameters of the tumor, respectively.
The anti-tumor efficacy of the compound was evaluated by TGI (%) or relative tumor proliferation rate T/C (%). TGI (%) reflected the tumor growth inhibition rate. Calculation of TGI (%): TGI (%)=[1−(average tumor volume at the end of administration in a treatment group−average tumor volume at the beginning of administration in this treatment group)/(average tumor volume at the end of administration in the solvent control group-average tumor volume at the beginning of administration in the solvent control group)]×100%.
Relative tumor proliferation rate T/C (%): the calculation formula was as follows: T/C %=TRTV/CRTV×100% (TRTV: mean RTV of the treatment group; CRTV: mean RTV of the negative control group). The relative tumor volume (RTV) was calculated according to the results of the tumor measurement. The calculation formula was RTV=Vt/V0, where V0 was the tumor volume measured at beginning of the grouping and administration (i.e., d0), and Vt was the tumor volume at the time of a certain measurement. TRTV and CRTV were obtained from the data on the same day.
Statistical analysis included mean value and standard error (SEM) of the tumor volume of each group at each time point (see Table 4 for specific data). […] The comparison between two groups was analyzed by T-test, and the comparison between three or more groups was analyzed by one-way ANOVA.
Statistical analysis of synergy: method for calculating Q value (also known as King's formula method) was as follows: Q=TGIA+B/(TGIA+TGIB−TGIA×TGIB). TGIA, TGIB and TGIA+B were the tumor inhibition rates when drug A was used alone, drug B was used alone, and drug A and drug B were used in combination, respectively.
In the experiment, the effect of the test compound on the weight of the animal was investigated. […]
Background: Xenograft models place foreign cells or tissue in a host animal.

On to `CO[C@H](C(=O)Nc1nnc(N[C@H]2CC[C@@H](c3cccnn3)CC2)s1)c1ccccc1` [Compound 10 (hydrochloride salt)], for which inhibition in data set [1] was half-maximal at 1.59 µM (IC50). This lies in the single-digit micromolar range. The same measure, in the same setting: to `COc1cc(C(OC)C(=O)Nc2nnc(N[C@H]3CC[C@@H](c4cccnn4)CC3)s2)ccc1F` (stereo partly shown) [Compound 12 (trifluoroacetate salt)] belongs 4.71 µM; to `CO[C@H](C(=O)Nc1nnc(NC2CCC(c3cc(C(=O)O)cnn3)CC2)s1)c1cc(OC(F)(F)F)ccc1F` (stereo partly shown) [Compound 6 (hydrochloride salt)], 1.69 µM; to `CO[C@H](C(=O)Nc1nnc(NC2CCC(c3cc(C)cnn3)CC2)s1)c1cc(OC(F)(F)F)ccc1F` (stereo partly shown) [Compound 5 (hydrochloride salt)], 0.469 µM.

Turning to `COC(C(=O)Nc1nnc(N[C@H]2CC[C@@H](c3cccnn3)CC2)s1)c1cccc(OC(F)F)c1` (stereo partly shown) [Compound 11 (trifluoroacetate salt)], the IC50 in data set [1] came to 0.72 µM. Same read-out and setting: to `CO[C@H](C(=O)Nc1nnc(NC2CCC(c3cc4cc[nH]c4nn3)CC2)s1)c1cc(OC(F)(F)F)ccc1F` (stereo partly shown) [Compound 14] belongs 0.757 µM. With `O=C(Cc1cccc(OC(F)(F)F)c1)Nc1ccc(CCCCc2nnc(NC(=O)Cc3ccccn3)s2)nn1` [CB-839, reference compound], in data set [2], the bioavailability came to 27.1%, the half-life is 4.69 h, the AUC(0-inf) stood at 27.7 µM·h and the Cmax is 18.1 µM.

Turning to `CO[C@H](C(=O)Nc1nnc(NC2CC=C(c3cc4cc[nH]c4nn3)CC2)s1)c1cc(OC(F)(F)F)ccc1F` (stereo partly shown) [Compound 13 (trifluoroacetate salt)], the IC50 in data set [1] was 0.18 µM.

In data set [1], `COC(C(=O)Nc1nnc(N[C@H]2CC[C@@H](c3cccnn3)CC2)s1)c1cccc(OC(F)(F)F)c1` (stereo partly shown) [Compound 9 (hydrochloride salt)] registered an IC50 of 0.502 µM.

`COC(C(=O)Nc1nnc(NC2CCC(c3cccnn3)CC2)s1)c1cc(OC(F)(F)F)ccc1F` (single isomer, unassigned) [Compound 3]: the IC50 in data set [1] amounted to 0.17 µM. In data set [1], `COC(C(=O)Nc1nnc(NC2CC=C(c3cccnn3)CC2)s1)c1cc(OC(F)(F)F)ccc1F` (single isomer, unassigned) [Compound 1] displayed an IC50 of 0.132 µM. Same read-out and setting: with `CO[C@H](C(=O)Nc1nnc(NC2CC=C(c3ccc(N)nn3)CC2)s1)c1cc(OC(F)(F)F)ccc1F` (stereo partly shown) [Compound 7 (hydrochloride salt)] the figure was 0.133 µM.

As to `COC(C(=O)Nc1nnc(NC2CC=C(c3cccnn3)CC2)s1)c1cc(OC(F)(F)F)ccc1F` (single isomer, unassigned) [Compound 2], half-maximal inhibition in data set [1] (IC50) required 0.0965 µM. In addition, in data set [2], the bioavailability is 34.8%, the half-life was 3.93 h, the AUC(0-inf) is 134 µM·h and the Cmax was found to be 36.8 µM.

`COC(C(=O)Nc1nnc(NC2CCC(c3cccnn3)CC2)s1)c1cc(OC(F)(F)F)ccc1F` (single isomer, unassigned) [Compound 4] displayed an IC50 in data set [1] of 4.9 µM. The same measure, in the same setting: with `COc1cccc(C(OC)C(=O)Nc2nnc(N[C@H]3CC[C@@H](c4cccnn4)CC3)s2)c1` (stereo partly shown) [Compound 8 (trifluoroacetate salt)] the figure was 0.577 µM. For `Nc1cccc2c1C(=O)N(C1CCC(=O)NC1=O)C2=O` (stereo not shown) [Poma, Pomalidomide], the “Tumor volume (mm^3) (Day 14)” value is 1542 ± 259 mm^3 in data set [3] (Day 14 after administration) and 1,542 mm^3 in data set [3] (Day 14 after administration, listed as pomalidomide). For the same compound, in data set [3] (Day 14 after administration, result in words), the “anti-tumor effect compared with the solvent control group” value is listed as “no significant anti-tumor effect”. The “T/C (%)” value in data set [3] (relative tumor proliferation rate, Day 14, vs solvent control group) turned out to be 68.8%. The “RTV (Day 14)” value in data set [3] (relative tumor volume Vt/V0, Day 14, same dosing as tumor volume) came out at 4.22 ± 0.50. The “TGI (%)” value in data set [3] (tumor growth inhibition rate, Day 14, vs solvent control group) is reported as 34.0%.

As a reminder, the IC50 is the midpoint of a concentration-inhibition curve. Read a high IC50 as weaker potency. As usually defined, the bioavailability is the share of a dose that reaches the circulation, judged against a reference dose that is usually intravenous. A high value points to much systemic uptake. Broadly, the AUC(0-inf) is the area under the concentration-time curve extrapolated to infinity.
